Data as given in US20250034150A1, “BTK INHIBITORS” (BIOGEN MA INC., priority 2021, published 2025).
Where a name gives a salt, the structure may show the parent alone.

Target: T1, BTK (Homo sapiens, UniProt Q06187)
T1 construct: purchased Upstate 14-552
Experiment: In Vitro BTK Kinase Assay: Btk-PolyGAT-LS Assay
Assay type: biochemical
Details: active BTK enzyme 0.25 nM, polyGAT 100 nM, 30 minutes, TRF readout; read-out: In Vitro BTK Kinase Assay IC50 Score
Protocol: The purpose of the BTK in vitro assay is to determine compound potency against BTK through the measurement of IC50. Compound inhibition is measured after monitoring the amount of phosphorylation of a fluorescein-labeled polyGAT peptide (Invitrogen PV3611) in the presence of active BTK enzyme (Upstate 14-552), ATP, and inhibitor. The BTK kinase reaction was done in a black 96 well plate (costar 3694). For a typical assay, a 24 μL aliquot of a ATP/peptide master mix (final concentration; ATP […], polyGAT 100 nM) in kinase buffer (10 mM Tris-HCl pH 7.5, 10 mM MgCl2, 200 μM […], 5 mM DTT, 0.01% Triton X-100, and 0.2 mg/ml casein) is added to each well. Next, […] of a 4-fold, 40× compound titration in 100% DMSO solvent is added, followed by adding 15 μL of BTK enzyme mix in 1× kinase buffer (with a final concentration of 0.25 nM). The assay is incubated for 30 minutes before being stopped with 28 μL of a 50 mM EDTA solution. Aliquots (5 uL) of the kinase reaction are transferred to a low volume white 384 well plate (Coming 3674), and 5 μL of a 2× detection buffer (Invitrogen PV3574, with 4 nM Tb—PY20 antibody, Invitrogen PV3552) is added. The plate is covered and incubated for 45 minutes at room temperature. Time resolved fluorescence (TRF) on Molecular Devices M5 (332 nm excitation; 488 nm emission; 518 nm fluorescein emission) is measured. IC50 values are calculated using a four parameter fit with 100% enzyme activity determined from the DMSO control and 0% activity from the EDTA control.

T1 sequence (Q06187 whole entry): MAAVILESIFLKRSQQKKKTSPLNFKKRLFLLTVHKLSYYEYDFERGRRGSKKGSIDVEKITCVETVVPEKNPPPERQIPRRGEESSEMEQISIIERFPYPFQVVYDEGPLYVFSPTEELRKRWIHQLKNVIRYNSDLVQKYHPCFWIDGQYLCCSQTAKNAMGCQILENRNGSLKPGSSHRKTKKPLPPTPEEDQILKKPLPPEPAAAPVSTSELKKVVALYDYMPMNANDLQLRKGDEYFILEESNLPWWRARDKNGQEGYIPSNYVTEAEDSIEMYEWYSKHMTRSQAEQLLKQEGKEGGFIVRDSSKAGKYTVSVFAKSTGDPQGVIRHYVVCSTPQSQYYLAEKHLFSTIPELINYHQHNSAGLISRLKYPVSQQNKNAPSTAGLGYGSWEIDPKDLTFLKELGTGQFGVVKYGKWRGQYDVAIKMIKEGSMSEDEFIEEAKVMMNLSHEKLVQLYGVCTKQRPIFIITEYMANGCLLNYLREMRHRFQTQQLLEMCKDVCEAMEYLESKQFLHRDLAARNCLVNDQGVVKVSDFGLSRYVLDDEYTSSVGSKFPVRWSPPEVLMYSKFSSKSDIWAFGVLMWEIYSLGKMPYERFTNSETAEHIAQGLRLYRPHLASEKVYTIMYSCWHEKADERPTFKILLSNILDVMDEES

SMILES | IC50 [nM]
Cn1cc(-c2cn3nccc3c(N3CCC(C)(CNC(=O)c4noc(C(C)(C)C)n4)C3)n2)cn1 (centres unmarked) [Example 42, 5-(tert-butyl)-N-((3-methyl-1-(6-(1-methyl-1H-pyrazol-4-yl)pyrazolo[1,5-a]pyrazin-4-yl)pyrrolidin-3-yl)methyl)-1,2,4-oxadiazole-3-carboxamide] | 1000 to 10000
CC(C)(C)n1cc(C(=O)NCc2ccc(-c3nc(N4CCOCC4)cn4nccc34)cc2)nn1 [Example 26, 1-(tert-butyl)-N-(4-(6-morpholinopyrazolo[1,5-a]pyrazin-4-yl)benzyl)-1H-1,2,3-triazole-4-carboxamide] | 10 to 1000
Cn1cc(-c2cn3nccc3c(N3CCC(C)(CNC(=O)c4cn(C(C)(C)C)nn4)C3)n2)cn1 (centres unmarked) [Example 49, 1-(tert-butyl)-N-((3-methyl-1-(6-(1-methyl-1H-pyrazol-4-yl)pyrazolo[1,5-a]pyrazin-4-yl)pyrrolidin-3-yl)methyl)-1H-1,2,3-triazole-4-carboxamide] | 1000 to 10000
CN1CCN(c2cn3nccc3c(-c3ccc(CNC(=O)c4coc(C(C)(C)C)n4)c(F)c3)n2)CC1 [Example 129, 2-(tert-butyl)-N-(2-fluoro-4-(6-(4-methylpiperazin-1-yl)pyrazolo[1,5-alpyrazin-4-yl)benzyl)oxazole-4-carboxamide trifluoroacetate] | 10 to 1000
Cn1cc(-c2cn3nccc3c(N3CCCC(CNC(=O)c4noc(C(C)(C)C)n4)CC3)n2)cn1 (centres unmarked) [Example 166, 5-(tert-butyl)-N-((1-(6-(1-methyl-1H-pyrazol-4-yl)pyrazolo[1,5-a]pyrazin-4-yl)azepan-4-yl)methyl)-1,2,4-oxadiazole-3-carboxamide] | 10 to 1000
CN(C)c1cn2nccc2c(-c2ccc(CNC(=O)c3noc(C(C)(C)C)n3)cc2)n1 [Example 135, 5-(tert-butyl)-N-(4-(6-(dimethylamino)pyrazolo[1,5-a]pyrazin-4-yl)benzyl)-1,2,4-oxadiazole-3-carboxamide] | 10 to 1000
CN1CCN(c2cn3nccc3c(-c3ccc(CNC(=O)c4nnc(C(C)(C)C)o4)c(F)c3)n2)CC1 [Example 127] | 10 to 1000
Cn1cc(-c2cn3nccc3c(N3CCC4(CC(NC(=O)c5noc(C(C)(C)C)n5)C4)C3)n2)cn1 (centres unmarked) [Example 52, 5-(tert-butyl)-N-(6-(6-(1-methyl-1H-pyrazol-4-yl)pyrazolo[1,5-a]pyrazin-4-yl)-6-azaspiro[3.4]octan-2-yl)-1,2,4-oxadiazole-3-carboxamide] | 1000 to 10000
Cn1cc(-c2cn3nccc3c(N3CCC(C)(CNC(=O)c4nnn(C(C)(C)C)n4)C3)n2)cn1 (centres unmarked) [Example 48, 2-(tert-butyl)-N-((3-methyl-1-(6-(1-methyl-1H-pyrazol-4-yl)pyrazolo[1,5-a]pyrazin-4-yl)pyrrolidin-3-yl)methyl)-2H-tetrazole-5-carboxamide] | 10 to 1000
Cn1cc(-c2cn3nccc3c(-c3cc(F)c(CNC(=O)c4ccn(C(C)(C)C)n4)cc3F)n2)cn1 [Example 96, 1-(tert-butyl)-N-(2,5-difluoro-4-(6-(1-methyl-1H-pyrazol-4-yl)pyrazolo[1,5-a]pyrazin-4-yl)benzyl)-1H-pyrazole-3-carboxamide] | 10 to 1000
CN1CCN(CC2CCN(c3nc(-c4cnn(C)c4)cn4nccc34)CC2)C(=O)C1 [Example 171, 4-methyl-1-((1-(6-(1-methyl-1H-pyrazol-4-yl)pyrazolo[1,5-a]pyrazin-4-yl)piperidin-4-yl)methyl)piperazin-2-one] | 1000 to 10000
Cc1cc(-c2nc(-c3cnn(C)c3)cn3nccc23)ccc1CN1CCN(CC2COC2)CC1=O [Example 32, 1-(2-methyl-4-(6-(1-methyl-1H-pyrazol-4-yl)pyrazolo[1,5-a]pyrazin-4-yl)benzyl)-4-(oxetan-3-ylmethyl)piperazin-2-one] | 10 to 1000
Cn1cc(-c2cc(-c3ccc(CNC(=O)c4cnn(C(C)(C)C)c4)cc3)n3cnnc3c2)cn1 [Example 77, 1-(tert-butyl)-N-(4-(7-(1-methyl-1H-pyrazol-4-yl)-[1,2,4]triazolo[4,3-a]pyridin-5-yl)benzyl)-1H-pyrazole-4-carboxamide] | 10 to 1000
Cn1cc(-c2cc(-c3ccc(CNC(=O)c4cn(C(C)(C)C)nn4)cc3)n3cnnc3c2)cn1 [Example 75, 1-(tert-butyl)-N-(4-(7-(1-methyl-1H-pyrazol-4-yl)-[1,2,4]triazolo[4,3-a]pyridin-5-yl)benzyl)-1H-1,2,3-triazole-4-carboxamide] | 10 to 1000
Cn1cc(-c2cn3nccc3c(N3CCC(C)(CNC(=O)c4noc(C5(C)CC5)n4)C3)n2)cn1 (centres unmarked) [Example 51, N-((3-methyl-1-(6-(1-methyl-1H-pyrazol-4-yl)pyrazolo[1,5-a]pyrazin-4-yl)pyrrolidin-3-yl)methyl)-5-(1-methylcyclopropyl)-1,2,4-oxadiazole-3-carboxamide] | 1000 to 10000
Cn1cc(-c2cn3nccc3c(N3CCC4(CC(NC(=O)c5noc(C(C)(C)C)n5)C4)C3)n2)cn1 (single isomer, unassigned) [Example 53, 5-(tert-butyl)-N-((2r,4s)-6-(6-(1-methyl-1H-pyrazol-4-yl)pyrazolo[1,5-a]pyrazin-4-yl)-6-azaspiro[3.4]octan-2-yl)-1,2,4-oxadiazole-3-carboxamide] | 10 to 1000
Cn1cc(-c2cn3nccc3c(N3CCC4(CC(NC(=O)c5noc(C(C)(C)C)n5)C4)C3)n2)cn1 (single isomer, unassigned) [Example 54, 5-(tert-butyl)-N-((2s,4r)-6-(6-(1-methyl-1H-pyrazol-4-yl)pyrazolo[1,5-a]pyrazin-4-yl)-6-azaspiro[3.4]octan-2-yl)-1,2,4-oxadiazole-3-carboxamide] | 1000 to 10000
C[C@H]1CN(c2nc(-c3cnn(C)c3)cn3nccc23)CC[C@H]1CNC(=O)c1noc(C2(C)CC2)n1 (single isomer, unassigned) [Example 147] | 10 to 1000
Cn1cc(-c2cn3nccc3c(N3CCC(CN4CCN(CC5CCC5)CC4=O)CC3)n2)cn1 [Example 169, 4-(Cyclobutylmethyl)-1-((1-(6-(1-methyl-1H-pyrazol-4-yl)pyrazolo[1,5-a]pyrazin-4-yl)piperidin-4-yl)methyl)piperazin-2-one] | 10 to 1000
Cn1cc(-c2cn3nccc3c(N3CC[C@H](CNC(=O)c4noc(C(C)(C)C)n4)C(F)(F)C3)n2)cn1 (single isomer, unassigned) [Example 159] | 10 to 1000

Continued, values first:

IC50 [nM] | SMILES
10 to 1000 | C[C@H]1C[C@@H](CNC(=O)c2cn(C(C)(C)C)nn2)CCN1c1nc(-c2cnn(C)c2)cn2nccc12 (single isomer, unassigned) [Example 142]
10 to 1000 | CC(C)(C)c1nc(C(=O)NCc2ccc(-c3nc(N4CCOCC4)cn4nccc34)cc2F)co1 [Example 125, 2-(tert-butyl)-N-(2-fluoro-4-(6-morpholinopyrazolo[1,5-a]pyrazin-4-yl)benzyl)oxazole-4-carboxamide]
1 to 10 | Cn1cc(-c2cn3nccc3c(-c3ccc(CNC(=O)c4ccn(C(C)(C)C)n4)c(C(F)F)c3)n2)cn1 [Example 103, 1-(tert-butyl)-N-(2-(difluoromethyl)-4-(6-(1-methyl-1H-pyrazol-4-yl)pyrazolo[1,5-a]pyrazin-4-yl)benzyl)-1H-pyrazole-3-carboxamide]
< 1 | Cc1cc(-c2nc(-c3cnn(C4COC4)c3)cn3nccc23)ccc1CNC(=O)c1noc(C(C)(C)C)n1 [Example 55, 5-(tert-butyl)-N-(2-methyl-4-(6-(1-(oxetan-3-yl)-1H-pyrazol-4-yl)pyrazolo[1,5-a]pyrazin-4-yl)benzyl)-1,2,4-oxadiazole-3-carboxamide]
10 to 1000 | C[C@@H]1CN(c2nc(-c3cnn(C)c3)cn3nccc23)CC[C@H]1CNC(=O)c1noc(C2(C)CC2)n1 (single isomer, unassigned) [Example 145]
10 to 1000 | C[C@@H]1C[C@H](CNC(=O)c2cn(C(C)(C)C)nn2)CCN1c1nc(-c2cnn(C)c2)cn2nccc12 (single isomer, unassigned) [Example 141]
1 to 10 | Cc1cc(-c2nc(N3CCN(C)CC3)cn3nccc23)ccc1CNC(=O)c1noc(C2(C)CC2)n1 [Example 131, N-(2-methyl-4-(6-(4-methylpiperazin-1-yl)pyrazolo[1,5-a]pyrazin-4-yl)benzyl)-5-(1-methylcyclopropyl)-1,2,4-oxadiazole-3-carboxamide trifluoroacetate]
1 to 10 | Cc1cc(-c2nc(N3CCOCC3)cn3nccc23)ccc1CNC(=O)c1noc(C2(C)CC2)n1 [Example 126, N-(2-methyl-4-(6-morpholinopyrazolo[1,5-a]pyrazin-4-yl)benzyl)-5-(1-methylcyclopropyl)-1,2,4-oxadiazole-3-carboxamide]
1 to 10 | CC(C)(C)c1nc(C(=O)NCc2ccc(-c3nc(N4CCC4)cn4nccc34)cc2)no1 [Example 134, N-(4-(6-(azetidin-1-yl)pyrazolo[1,5-a]pyrazin-4-yl)benzyl)-5-(tert-butyl)-1,2,4-oxadiazole-3-carboxamide]
